Settings: for mass density: 283.24 K, Fluid (supercritical or subcritical phases), Vibrating tube method; for vapor or sublimation pressure: Liquid, Closed cell (Static) method

FC(F)=C(F)C(F)(F)F [hexafluoropropene]
Settings | mass density [kg/m3] | vapor or sublimation pressure [kPa]
114 kPa | 7.35 | –
116.4 kPa | 7.51 | –
118.8 kPa | 7.66 | –
121.1 kPa | 7.8 | –
123.6 kPa | 8.03 | –
126.1 kPa | 8.11 | –
128.5 kPa | 8.33 | –
131 kPa | 8.54 | –
133.4 kPa | 8.66 | –
135.9 kPa | 8.94 | –
140.7 kPa | 9.1 | –
143.2 kPa | 9.36 | –
145.7 kPa | 9.54 | –
148.1 kPa | 9.69 | –
150.6 kPa | 9.83 | –
153 kPa | 9.99 | –
155.6 kPa | 10.24 | –
158.1 kPa | 10.37 | –
160.5 kPa | 10.54 | –
163 kPa | 10.74 | –
165.1 kPa | 10.87 | –
167.6 kPa | 11.05 | –
170 kPa | 11.2 | –
172.5 kPa | 11.37 | –
176.6 kPa | 11.7 | –
179.2 kPa | 11.83 | –
181.6 kPa | 12.01 | –
184.2 kPa | 12.12 | –
186.6 kPa | 12.42 | –
190.9 kPa | 12.6 | –
193.4 kPa | 12.77 | –
195.9 kPa | 13.03 | –
198.4 kPa | 13.21 | –
203.3 kPa | 13.55 | –
205.8 kPa | 13.69 | –
208.3 kPa | 13.93 | –
210.8 kPa | 14.08 | –
213.3 kPa | 14.3 | –
215.8 kPa | 14.4 | –
218.3 kPa | 14.66 | –
220.8 kPa | 14.83 | –
223.3 kPa | 14.99 | –
225.7 kPa | 15.16 | –
228.2 kPa | 15.32 | –
230.7 kPa | 15.58 | –
233.2 kPa | 15.69 | –
235.7 kPa | 15.79 | –
238.2 kPa | 16.04 | –
240.7 kPa | 16.28 | –
243.2 kPa | 16.38 | –
245.6 kPa | 16.6 | –
248.1 kPa | 16.83 | –
250.7 kPa | 17.01 | –
253.2 kPa | 17.15 | –
255.6 kPa | 17.39 | –
258.1 kPa | 17.58 | –
260.5 kPa | 17.67 | –
263 kPa | 17.89 | –
265.5 kPa | 18.02 | –
268 kPa | 18.31 | –
270.4 kPa | 18.49 | –
272.9 kPa | 18.6 | –
275.4 kPa | 18.8 | –
277.9 kPa | 19.01 | –
280.5 kPa | 19.23 | –
283.1 kPa | 19.39 | –
286.3 kPa | 19.61 | –
288.21 K | – | 537.1
288.7 kPa | 19.79 | –
291.2 kPa | 19.98 | –
293.19 K | – | 625.9
293.7 kPa | 20.2 | –
296.1 kPa | 20.4 | –
298.22 K | – | 728.3
298.6 kPa | 20.56 | –
305.2 kPa | 21.07 | –
308.4 kPa | 21.36 | –
311.6 kPa | 21.56 | –
314.8 kPa | 21.85 | –
318.2 kPa | 22.13 | –
321.5 kPa | 22.28 | –
324.6 kPa | 22.54 | –
327.9 kPa | 22.87 | –
331.2 kPa | 23.12 | –
334.4 kPa | 23.37 | –
340.9 kPa | 23.85 | –
344.2 kPa | 24.11 | –
347.4 kPa | 24.4 | –
350.6 kPa | 24.64 | –
353.9 kPa | 24.84 | –
357.1 kPa | 25.07 | –
360.3 kPa | 25.34 | –
363.5 kPa | 25.56 | –
366.7 kPa | 25.93 | –
370 kPa | 26.15 | –
373.1 kPa | 26.37 | –
376.4 kPa | 26.74 | –
379.5 kPa | 26.94 | –
382.8 kPa | 27.24 | –
385.9 kPa | 27.44 | –
389.2 kPa | 27.66 | –
392.3 kPa | 27.96 | –
395.5 kPa | 28.23 | –
398.7 kPa | 28.48 | –
401.8 kPa | 28.77 | –
405 kPa | 28.98 | –
408.2 kPa | 29.26 | –
411.4 kPa | 29.53 | –
414.6 kPa | 29.77 | –
417.7 kPa | 30.05 | –
420.9 kPa | 30.37 | –
424 kPa | 30.54 | –
427.2 kPa | 30.81 | –
430.3 kPa | 31.07 | –
433.5 kPa | 31.39 | –
436.6 kPa | 31.7 | –
439.7 kPa | 31.9 | –
442.9 kPa | 32.26 | –
446 kPa | 32.45 | –
449 kPa | 32.73 | –
452.1 kPa | 32.99 | –
454.4 kPa | 33.16 | –
456.7 kPa | 33.3 | –
460.5 kPa | 33.77 | –
462.7 kPa | 33.86 | –
463.5 kPa | 34.04 | –
464.2 kPa | 34.05 | –
465 kPa | 34.18 | –
465.7 kPa | 34.33 | –
466.4 kPa | 34.49 | –
467.1 kPa | 34.74 | –
467.7 kPa | 35.03 | –
468.3 kPa | 35.5 | –
468.9 kPa | 35.71 | –
